The target of one test is SOS1/KRAS-G12D (Homo sapiens (Human), UniProt Q07889). As to the kind of experiment: SOS1/KRAS-G12D binding inhibition assay (AlphaScreen). Conditions: GST-SOS1 and 6*His KRAS-G12D, read-out: KrasG12D/SOS1 binding IC50. Summed up:
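GST-SOS1 (5 nM) pre-incubated 30 min with His6-KRAS-G12D (50 nM) in HEPES pH 7.4, NaCl, DTT, MgCl2, Tween-20, BSA; compound in 2% DMSO then added for 30 min at 4° C. GSH donor and Ni-NTA acceptor AlphaScreen beads, 2 h at 4° C; background-corrected % inhibition versus DMSO, IC50 by variable-slope nonlinear regression.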
(Alpha assays give light when donor and acceptor beads are brought close together.)

Test [1] deals with Phospho-ERK1/2 in DLD1 cells. The test is described as follows: Phospho-ERK1/2 expression inhibition in DLD1 cells. In kind it is cell-based. Conditions: Homo sapiens, DLD-1, 4 hours, read-out: DLD1 pERK IC50. A digest of the protocol: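 DLD1 cells (15,000/well) were plated overnight, then exposed to compounds for 4 h at 37 °C. Cells were formaldehyde-fixed and methanol-permeabilized. Phospho-ERK1/2 was detected in-cell with rabbit anti-phospho-ERK1/2 and an IRDye 800CW secondary antibody, imaged on a LI-COR Odyssey.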

The next test has as its system K562 cells. As to the kind of experiment: Cell growth inhibition of K562 cells (CellTiter-Glo). Conditions: Homo sapiens, 120 h, 5 days. Type of test: cell-based. For orientation: Cellular ATP, detected with luciferase, serves as a proxy for viable cell number.

Structures are written as SMILES.

Sequence of SOS1/KRAS-G12D (Q07889 564-1049 limits assumed): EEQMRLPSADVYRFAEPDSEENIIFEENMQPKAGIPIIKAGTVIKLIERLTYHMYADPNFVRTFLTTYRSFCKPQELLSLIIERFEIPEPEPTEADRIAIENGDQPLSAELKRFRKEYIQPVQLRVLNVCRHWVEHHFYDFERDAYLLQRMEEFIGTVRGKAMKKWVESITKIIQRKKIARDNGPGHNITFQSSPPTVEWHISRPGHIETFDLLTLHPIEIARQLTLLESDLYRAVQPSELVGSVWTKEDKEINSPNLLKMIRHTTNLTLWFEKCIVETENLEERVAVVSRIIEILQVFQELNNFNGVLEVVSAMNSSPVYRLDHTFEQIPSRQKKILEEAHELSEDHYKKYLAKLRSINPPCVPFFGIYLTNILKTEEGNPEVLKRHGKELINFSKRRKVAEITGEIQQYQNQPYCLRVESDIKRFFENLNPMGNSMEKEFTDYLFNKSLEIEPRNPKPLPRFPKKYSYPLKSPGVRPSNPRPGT

With `CC(=O)N1CCC(F)(c2ccc3nccc(N[C@H](C)c4cccc(C(F)F)c4F)c3c2)CC1` [Compound 41, (R)-1-(4-(4-((1-(3-(difluoromethyl)-2-fluorophenyl)ethyl)amino)quinolin-6-yl)-4-fluoropiperidin-1-yl)ethan-1-one], the values for the IC50 (on SOS1/KRAS-G12D; in test [1]) were at most 10 nM and 150 to 500 nM, respectively. The compound also showed a GI50 with K562 cells of at most 100 nM.
With `C[C@@H](Nc1ccnc2ccc(N3CC[C@@H](O)C3)cc12)c1cccc(C(F)F)c1F` [Compound 42, (R)-1-(4-(((R)-1-(3-(difluoromethyl)-2-fluorophenyl)ethyl)amino)quinolin-6-yl)pyrrolidin-3-ol], the IC50 on SOS1/KRAS-G12D was at most 10 nM; in test [1], at most 150 nM. The compound further returned a GI50 in the test on K562 cells of at most 100 nM.
The matching figures for `C[C@@H](Nc1ccnc2ccc(N3CC[C@H](O)C3)cc12)c1cccc(C(F)F)c1F` [Compound 43, (S)-1-(4-(((R)-1-(3-(difluoromethyl)-2-fluorophenyl)ethyl)amino)quinolin-6-yl)pyrrolidin-3-ol]: at most 10 nM, 150 to 500 nM and 100 to 500 nM.
The matching figures for `CN[C@@H]1CCN(c2ccc3nccc(N[C@H](C)c4cccc(C(F)F)c4F)c3c2)C1` [Compound 44, N-((R)-1-(3-(difluoromethyl)-2-fluorophenyl)ethyl)-6-((R)-3-(methylamino)pyrrolidin-1-yl)quinolin-4-amine]: at most 10 nM, over 500 nM and at most 100 nM.
In the case of `Cc1c([C@@H](C)Nc2ccnc3ccc(N4CCn5c(C)nnc5C4)cc23)cccc1C(F)(F)F` [Compound 45, (R)-N-(1-(2-methyl-3-(trifluoromethyl)phenyl)ethyl)-6-(3-methyl-5,6-dihydro-[1,2,4]triazolo[4,3-a]pyrazin-7(8H)-yl)quinolin-4-amine], the IC50 at SOS1/KRAS-G12D is 10 to 100 nM; in test [1], over 500 nM. In the test with K562 cells, this compound showed a GI50 of 100 to 500 nM.
On to `Cc1c([C@@H](C)Nc2ccnc3ccc(N4CCN(C(=O)C(C)C)CC4)cc23)cccc1C(F)(F)F` [Compound 46, (R)-2-methyl-1-(4-(4-((1-(2-methyl-3-(trifluoromethyl)phenyl)ethyl)amino)quinolin-6-yl)piperazin-1-yl)propan-1-one], for which the IC50 at SOS1/KRAS-G12D was 10 to 100 nM; in test [1], 150 to 500 nM. In addition, the GI50 with K562 cells is 100 to 500 nM.
For `COc1cc2nccc(N[C@H](C)c3cccc(C(F)(F)F)c3C)c2cc1N1CCN(C(=O)C2COC2)CC1` [Compound 47] the same measures were 10 to 100 nM, over 500 nM and 100 to 500 nM.
The matching figures for `C[C@@H](Nc1ccnc2ccc(N3CCOCC3)cc12)c1cccc(C(F)F)c1F` [Compound 48, (R)-N-(1-(3-(difluoromethyl)-2-fluorophenyl)ethyl)-6-morpholinoquinolin-4-amine]: at most 10 nM, at most 150 nM and at most 100 nM.
For `C[C@@H](Nc1ccnc2ccc(N3CCC(N)CC3)cc12)c1cccc(C(F)F)c1F` [Compound 49, (R)-6-(4-aminopiperidin-1-yl)-N-(1-(3-(difluoromethyl)-2-fluorophenyl)ethyl)quinolin-4-amine] the same measures were at most 10 nM, over 500 nM and 100 to 500 nM.
For `Cc1c([C@@H](C)Nc2ccnc3ccc(N4CCN[C@H](C)C4)cc23)cccc1C(F)(F)F` [Compound 50, N-((R)-1-(2-methyl-3-(trifluoromethyl)phenyl)ethyl)-6-((R)-3-methylpiperazin-1-yl)quinolin-4-amine], the results for the IC50 (on SOS1/KRAS-G12D; in test [1]) were 10 to 100 nM and over 500 nM, respectively. In the test with K562 cells, this compound registered a GI50 of 100 to 500 nM.
On to `CC(=O)N1CCN(c2ccc3nccc(N[C@H](C)c4cccc(C(F)(F)F)c4C)c3c2)C[C@H]1C` [Compound 51, 1-((R)-2-methyl-4-(4-(((R)-1-(2-methyl-3-(trifluoromethyl)phenyl)ethyl)amino)quinolin-6-yl)piperazin-1-yl)ethan-1-one], for which the IC50 at SOS1/KRAS-G12D was 10 to 100 nM; in test [1] it was over 500 nM. For the same compound, the 50% growth inhibitory concentration (GI50) with K562 cells was 100 to 500 nM.

Usually GI50 stands for the concentration at which growth is held to half of that of the control. Low readings indicate more potent growth inhibition, high ones less potent growth inhibition.

The values above are taken from US20240208909A1, “SUBSTITUTED QUINOLINE DERIVATIVES HAVING SOS1 INHIBITION ACTIVITIES AND USES THEREOF” (Accutar Biotechnology Inc., priority 2022, published 2024).
